“And” between values parts separate entries of the source, which are not always exact repeats. Identical values can stand only once. Counter-ions that a name gives are not always drawn.
Tests used:
recombinant Pf PMX = target: T1, recombinant Pf PMX (Plasmodium falciparum, UniProt Q8IAS0); experiment: PMX biochemical FRET assay (Rh2N fluorogenic substrate cleavage); conditions: for IC50: 37 °C
T1 construct: made in house
Procedure: FRET Protease Assays. FRET protease assays were performed as previously described.[19, 20, 27, 28] Briefly, ten‐point 1 : 3‐fold dilution series of the compounds were prepared in 384‐well black low volume assay plates (Greiner) using an Echo555 (Labcyte). 10 mM compound stocks were transferred into assay plates such that the starting concentration was 90 μM (Pv PMV assays), 11.25 μM (renin, cathepsin D and BACE‐1 assays) or 100 nM and 10 μM (Pf PMX and Pf PMIX assays). All wells were backfilled to 200 nL DMSO such that the DMSO concentration remained constant across the assay plates (1 % final). All compound potency assays were conducted in 20 μL total volume. For each assay, 10 μL of recombinant enzymes in respective assay buffers (Table S2) were dispensed into compound containing assay plates using a Multidrop‐Combi dispenser and allowed to incubate for 15 min. Recombinant Pf PMX, Pf PMIX and Pv PMV were expressed as previously described,[23, 27, 28] and recombinant human aspartyl proteases were purchased commercially. 10 μL of the fluorogenic peptide substrates incubated at 37 °C for the duration and conditions noted in Table S2. Samples were excited at 340 nm and fluorescence emission measured at 492 nm using an Envision fluorescence plate reader (Perkin‐Elmer). The 0 % inhibition control contained DMSO alone (1 % final) and the 100 % inhibition control was in the absence of enzyme. […]
(§1) Table S2 . P rotease FRET assay conditions.
(§2) PMX as sa y PMIX PM V assay Renin assay Cathepsin D assay BA CE-1 assay E nzy me prot e as e 0.25 nM pro te a se 6 nM prot e as e q ua nti ty 0.1 nM pro t ea se 1.5 nM pro t ea se 2.5 nM pro t ea se 3 nM (Pro te os #R-001) ( Athe ns Re sea rc h (Sigma #S4195) […]
(§3) 25mM so di um acetate, 100 mM 25 mM M E S, 25 m M 50 mM Tr is, 100 mM 100 mM so di u m 20 mM so dium Buffer acetate, 0.005% sodium chloride and Tris-HCl, 0.01% N aC l, 0. 1% Bri j-35, acetate 0.02% scetate, 0.05% […]
(§4) Sub str at e DABCYL- ( DA BC YL ) - DABCYL- DABCYL-(γ- Ab u) - E[E(EDANS)]KPIL […]

[1] = system: P. falciparum (Pf) 3D7 parasites; experiment: P. falciparum LDH viability assay; type: cell-based; conditions: for fold decrease in parasite activity compared to PMX inhibition: Pf 3D7 EC50 versus PMX IC50; for EC50: Plasmodium falciparum, 3D7, 72 h, LDH activity, 72 h at 37 °C, mean and SD of 3 independent experiments
Procedure: P. falciparum LDH Viability Assay. P. falciparum LDH viability assays were performed as previously described.[40] Briefly, a ten‐point 1 : 3‐fold dilution series of the compounds were pre‐dispensed in 384‐well assay plates (Grenier), and RPMI/AlbuMAX growth media inoculated with synchronized ring stage P. falciparum parasites. 10 mM compound stocks were transferred into the assay plates such that the starting concentration was 10 μM. Plates were incubated for 72 h and then frozen at −80 °C overnight. Lactate dehydrogenase (LDH) activity was quantified with APAD by measuring absorbance of NBT at 650 nm. Data were normalized to percent growth inhibition using the positive control of 0.1 % DMSO alone and the negative control of 100 nM chloroquine. Half‐maximal effective concentration (EC50) values were calculated by GraphPad Prism (8.0.2) software using a nonlinear regression four‐parameter fit analysis using a sigmoidal dose response (variable slope).

in vitro = type: cell-based; conditions: human
Procedure: HepG2 Cytotoxicity Assay. HepG2 cytotoxicity assays were performed as previously described.[41] Briefly, human hepatocyte HepG2 cells were cultured in DMEM supplemented with 10 % FCS at 37 °C and 5 % CO2 in a humidified incubator. Cells were seeded at 1000 cells/well in 50 μL in 384‐well plates (Grenier) and compounds incubated in ten‐point 1 : 2‐fold dilution series for 48 h. Cytotoxicity was determined using Cell Titer‐Glo (Promega), normalized to DMSO alone controls (100 % viability) and control compound Bortezomib (0 % viability at 10 μM). CC50 values were calculated by GraphPad Prism (8.0.2) software using a nonlinear regression four‐parameter fit analysis with the sigmoidal dose response (variable slope).

recombinant Pf PMIX = target: T2, recombinant Pf PMIX (Plasmodium falciparum, UniProt Q8ILG2); experiment: PMIX FRET protease assay; type: biochemical, P. falciparum; conditions: mean and SD of 4 replicate FRET experiments, 37 °C
T2 construct: made in house
T2 sequence (Q8ILG2 whole entry): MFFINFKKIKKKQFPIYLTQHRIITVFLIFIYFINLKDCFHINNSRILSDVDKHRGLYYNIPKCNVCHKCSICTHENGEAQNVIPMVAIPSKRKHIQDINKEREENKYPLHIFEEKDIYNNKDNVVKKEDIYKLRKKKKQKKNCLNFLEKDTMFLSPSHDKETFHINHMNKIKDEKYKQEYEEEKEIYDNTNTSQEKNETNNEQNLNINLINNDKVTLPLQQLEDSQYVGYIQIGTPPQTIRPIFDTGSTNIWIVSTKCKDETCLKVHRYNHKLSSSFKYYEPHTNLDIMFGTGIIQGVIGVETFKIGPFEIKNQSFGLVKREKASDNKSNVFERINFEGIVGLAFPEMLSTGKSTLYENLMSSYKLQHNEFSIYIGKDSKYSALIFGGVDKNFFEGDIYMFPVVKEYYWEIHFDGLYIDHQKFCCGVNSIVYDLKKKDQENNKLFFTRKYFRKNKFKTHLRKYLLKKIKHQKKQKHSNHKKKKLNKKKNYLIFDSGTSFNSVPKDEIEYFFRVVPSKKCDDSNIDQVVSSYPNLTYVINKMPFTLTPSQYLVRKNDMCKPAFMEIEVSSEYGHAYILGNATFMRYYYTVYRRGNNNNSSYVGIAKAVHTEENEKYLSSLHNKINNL
Procedure: (§5) FRET Protease Assays. FRET protease assays were performed as previously described.[19, 20, 27, 28] Briefly, ten‐point 1 : 3‐fold dilution series of the compounds were prepared in 384‐well black low volume assay plates (Greiner) using an Echo555 (Labcyte). 10 mM compound stocks were transferred into assay plates such that the starting concentration was 90 μM (Pv PMV assays), 11.25 μM (renin, cathepsin D and BACE‐1 assays) or 100 nM and 10 μM (Pf PMX and Pf PMIX assays). All wells were backfilled to 200 nL DMSO such that the DMSO concentration remained constant across the assay plates (1 % final). All compound potency assays were conducted in 20 μL total volume. For each assay, 10 μL of recombinant enzymes in respective assay buffers (Table S2) were dispensed into compound containing assay plates using a Multidrop‐Combi dispenser and allowed to incubate for 15 min. Recombinant Pf PMX, Pf PMIX and Pv PMV were expressed as previously described,[23, 27, 28] and recombinant human aspartyl proteases were purchased commercially. 10 μL of the fluorogenic peptide substrates incubated at 37 °C for the duration and conditions noted in Table S2. Samples were excited at 340 nm and fluorescence emission measured at 492 nm using an Envision fluorescence plate reader (Perkin‐Elmer). The 0 % inhibition control contained DMSO alone (1 % final) and the 100 % inhibition control was in the absence of enzyme. Half‐maximal inhibitory concentration (IC50) values were calculated by GraphPad Prism (8.0.2) software using a nonlinear regression four‐parameter fit analysis using a sigmoidal dose response (variable slope).
as §1, §2, §3, §4

cathepsin D = target: T3, cathepsin D (Homo sapiens, UniProt P07339); experiment: Cathepsin D FRET protease assay; type: biochemical; conditions: mean and SD of 4 replicate FRET experiments, 37 °C; highest concentration tested 11 μM
T3 construct: purchased Athens Research 16-12-030104
T3 sequence (P07339 65-412): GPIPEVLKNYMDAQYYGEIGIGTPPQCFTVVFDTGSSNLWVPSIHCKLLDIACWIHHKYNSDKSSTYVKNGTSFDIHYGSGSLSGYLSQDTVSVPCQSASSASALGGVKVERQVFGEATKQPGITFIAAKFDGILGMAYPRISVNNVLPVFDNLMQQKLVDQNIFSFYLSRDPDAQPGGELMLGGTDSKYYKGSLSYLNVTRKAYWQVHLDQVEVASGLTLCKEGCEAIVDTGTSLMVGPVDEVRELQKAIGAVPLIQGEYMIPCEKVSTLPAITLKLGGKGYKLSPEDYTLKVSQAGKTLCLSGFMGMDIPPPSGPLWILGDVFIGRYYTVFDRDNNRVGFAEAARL

recombinant Pv PMV = target: T4, recombinant Pv PMV (Plasmodium vivax, UniProt A5K302); experiment: PMV FRET protease assay; type: biochemical
T4 construct: made in house
T4 sequence (A5K302 35-536): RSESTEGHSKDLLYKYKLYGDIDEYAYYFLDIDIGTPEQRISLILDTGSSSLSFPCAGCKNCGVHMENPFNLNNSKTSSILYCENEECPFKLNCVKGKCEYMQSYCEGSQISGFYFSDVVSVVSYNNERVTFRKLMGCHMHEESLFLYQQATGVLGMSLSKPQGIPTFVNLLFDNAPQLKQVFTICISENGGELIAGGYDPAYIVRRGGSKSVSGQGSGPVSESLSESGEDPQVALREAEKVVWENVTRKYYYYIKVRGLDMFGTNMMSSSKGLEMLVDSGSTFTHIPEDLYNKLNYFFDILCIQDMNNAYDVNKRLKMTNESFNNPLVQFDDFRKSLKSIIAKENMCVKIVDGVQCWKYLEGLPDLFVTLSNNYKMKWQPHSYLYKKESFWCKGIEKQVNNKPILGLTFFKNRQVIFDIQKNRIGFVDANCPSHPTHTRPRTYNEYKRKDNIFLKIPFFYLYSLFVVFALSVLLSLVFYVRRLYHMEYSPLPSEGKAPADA
Procedure: as §5, §1, §2, §3, §4

renin = target: T5, renin (Homo sapiens, UniProt P00797); experiment: Renin FRET protease assay; type: biochemical; conditions: mean and SD of 4 replicate FRET experiments, 37 °C; highest concentration tested 11 μM
T5 construct: purchased Proteos R-001
T5 sequence (P00797 67-406): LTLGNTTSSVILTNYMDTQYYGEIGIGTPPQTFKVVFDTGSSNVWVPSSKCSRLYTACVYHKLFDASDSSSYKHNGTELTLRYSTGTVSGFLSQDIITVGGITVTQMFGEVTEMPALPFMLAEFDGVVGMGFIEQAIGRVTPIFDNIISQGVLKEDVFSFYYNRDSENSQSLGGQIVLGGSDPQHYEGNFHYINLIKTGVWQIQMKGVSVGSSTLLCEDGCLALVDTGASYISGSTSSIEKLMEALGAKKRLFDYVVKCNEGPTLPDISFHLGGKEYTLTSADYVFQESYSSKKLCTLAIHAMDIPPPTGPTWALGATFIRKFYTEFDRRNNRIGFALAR

BACE‐1 = target: T6, BACE‐1 (Homo sapiens, UniProt P56817); experiment: BACE-1 FRET protease assay; type: biochemical; conditions: mean and SD of 4 replicate FRET experiments, 37 °C; highest concentration tested 11 μM
T6 construct: purchased Sigma S4195
T6 sequence (P56817 46-460 limits assumed): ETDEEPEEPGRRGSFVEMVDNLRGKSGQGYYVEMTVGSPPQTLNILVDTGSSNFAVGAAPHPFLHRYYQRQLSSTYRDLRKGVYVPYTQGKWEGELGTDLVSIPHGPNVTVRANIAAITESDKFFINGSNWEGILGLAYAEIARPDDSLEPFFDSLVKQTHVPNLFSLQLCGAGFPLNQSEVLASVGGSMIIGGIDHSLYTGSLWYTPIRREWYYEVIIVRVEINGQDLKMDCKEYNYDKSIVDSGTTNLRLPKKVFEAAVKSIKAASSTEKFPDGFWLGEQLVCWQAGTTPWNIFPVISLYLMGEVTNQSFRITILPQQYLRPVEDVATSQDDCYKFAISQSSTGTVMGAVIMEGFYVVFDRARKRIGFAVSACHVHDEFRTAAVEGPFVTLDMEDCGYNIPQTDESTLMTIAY

[2] = recombinant PMX, fluorogenic substrate (Rh2N) cleavage, 4 h, mean and SD of 4 replicates (Tables 1, 2)

T1 sequence (Q8IAS0 222-573): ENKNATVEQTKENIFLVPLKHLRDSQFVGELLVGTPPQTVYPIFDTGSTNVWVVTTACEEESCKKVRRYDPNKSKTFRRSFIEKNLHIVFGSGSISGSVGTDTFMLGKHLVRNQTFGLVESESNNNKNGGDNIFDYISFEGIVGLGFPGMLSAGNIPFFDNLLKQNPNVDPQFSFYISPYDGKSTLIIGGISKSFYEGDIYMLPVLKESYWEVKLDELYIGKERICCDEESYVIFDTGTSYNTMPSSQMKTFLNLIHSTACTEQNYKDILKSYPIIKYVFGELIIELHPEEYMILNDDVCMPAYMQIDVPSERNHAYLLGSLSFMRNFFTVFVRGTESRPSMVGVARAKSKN

Structure (SMILES) | IC50 (recombinant Pf PMX; [2]) | EC50 [1] | fold less active against PMX than the L‐configured Ser (38) counterpart (recombinant Pf PMX; PMX IC50 compared with 38) | fold decrease in parasite activity compared to PMX inhibition [1] | CC50 at 48 h (in vitro) | IC50 (recombinant Pf PMIX) | IC50 (cathepsin D) | IC50 (recombinant Pv PMV) | IC50 (renin) | IC50 (recombinant Pf PMX; Table 3, mean and SD of 4 replicate FRET experiments) | IC50 (BACE‐1)
CC(=O)N[C@@H](CO)C(=O)N[C@@H](Cc1ccccc1)[C@H](O)CN[C@H](C)c1ccccc1 [Compd 39, Ac‐Ser‐Phe‐HEA‐Bn(CH3)⋅TFA] | 3.3 µM | 6.2 µM | – | – | > 40 µM | – | – | – | – | – | –
CCC(C)C(NC(C)=O)C(=O)NC(CO)C(=O)NC(Cc1ccccc1)C(O)CNC(C)c1ccccc1 (centres unmarked) [Compd 26, Ac‐Ile‐Ser‐Phe‐HEA‐Bn(CH3)⋅TFA] | 0.01 µM | 0.19 µM | – | – | > 40 µM | 2.7 µM | > 11 µM | > 90 µM | > 11 µM | 0.01 µM | 2.9 µM
CC(C)C[C@H](NC(=O)[C@H](CO)NC(=O)OCc1ccccc1)[C@H](O)CN[C@H](C)c1ccccc1 [Compd 41, Cbz‐Ser‐Leu‐HEA‐Bn(CH3)⋅TFA] | 1.8 µM | 3.2 µM | – | – | > 40 µM | – | – | – | – | – | –
CCC(C)[C@H](NC(=O)OCc1ccccc1)C(=O)N[C@@H](Cc1ccccc1)[C@H](O)CN[C@H](C)c1ccccc1 (some centres unmarked) [Compd 37, Cbz‐Ile‐Phe‐HEA‐Bn(CH3)] | 0.02 µM | 0.14 µM | – | – | > 40 µM | 14.7 µM | 0.2 µM | > 90 µM | > 11 µM | – | > 11 µM

Further lines, with some results ahead:

IC50 (recombinant Pf PMX; [2]) | EC50 [1] | fold less active against PMX than the L‐configured Ser (38) counterpart (recombinant Pf PMX; PMX IC50 compared with 38) | Structure (SMILES) | fold decrease in parasite activity compared to PMX inhibition [1] | CC50 at 48 h (in vitro) | IC50 (recombinant Pf PMIX) | IC50 (cathepsin D) | IC50 (recombinant Pv PMV) | IC50 (renin) | IC50 (recombinant Pf PMX; Table 3, mean and SD of 4 replicate FRET experiments) | IC50 (BACE‐1)
0.07 µM | 0.65 µM | – | C[C@@H](NC[C@@H](O)[C@H](Cc1ccccc1)NC(=O)[C@H](Cc1ccccc1)NC(=O)OCc1ccccc1)c1ccccc1 [Compd 36, Cbz‐Phe‐Phe‐HEA‐Bn(CH3)] | approximately 6 fold | > 40 µM | – | – | – | – | – | –
0.18 µM | 0.6 µM | – | CC(C)C[C@H](NC(=O)OCc1ccccc1)C(=O)N[C@@H](Cc1ccccc1)[C@H](O)CN[C@H](C)c1ccccc1 [Compd 35, Cbz‐Leu‐Phe‐HEA‐Bn(CH3)] | approximately 6 fold | 18 µM | – | – | – | – | – | –
< 1 µM and 0.19 µM and 0.17 µM | 1.4 µM | – | CC(NCC(O)C(Cc1ccccc1)NC(=O)C(Cc1ccccc1)NC(=O)C(CO)NC(=O)OCc1ccccc1)c1ccccc1 (centres unmarked) [Compd 22, Cbz‐Ser‐Phe‐Phe‐HEA‐Bn(CH3)⋅TFA] | – | > 40 µM | – | – | – | – | – | –
0.33 µM | 0.57 µM | 7 fold | C[C@@H](NC[C@@H](O)[C@H](Cc1ccccc1)NC(=O)[C@@H](CO)NC(=O)OCc1ccccc1)c1ccccc1 [Compd 40, Cbz‐D‐Ser‐Phe‐HEA‐Bn(CH3)⋅TFA] | – | > 40 µM | – | – | – | – | – | –
